Experimental data from the NIST ThermoML archive (doi:10.1007/s10765-013-1553-5).
Numbers after ± are expanded uncertainties.

Details: Liquid, Closed cell (Static) method

F/C=C\C(F)(F)F [(Z)-1,3,3,3-tetrafluoro-1-propene]
vapor or sublimation pressure (238.13 K): 12 ± 2 kPa
vapor or sublimation pressure (243.1 K): 16 ± 2 kPa
vapor or sublimation pressure (248 K): 21 ± 2 kPa
vapor or sublimation pressure (252.9 K): 27 ± 2 kPa
vapor or sublimation pressure (257.81 K): 34 ± 2 kPa
vapor or sublimation pressure (263.02 K): 44 ± 2 kPa
vapor or sublimation pressure (267.91 K): 55 ± 2 kPa
vapor or sublimation pressure (272.83 K): 68 ± 2 kPa
vapor or sublimation pressure (277.94 K): 85 ± 2 kPa
vapor or sublimation pressure (282.78 K): 102 ± 2 kPa
vapor or sublimation pressure (283.15 K): 103 ± 2 kPa
vapor or sublimation pressure (285.15 K): 111 ± 2 kPa
vapor or sublimation pressure (287.15 K): 120 ± 2 kPa
vapor or sublimation pressure (287.62 K): 123 ± 2 kPa
vapor or sublimation pressure (289.15 K): 129 ± 2 kPa
vapor or sublimation pressure (291.15 K): 139 ± 2 kPa
vapor or sublimation pressure (292.62 K): 148 ± 2 kPa
vapor or sublimation pressure (293.15 K): 149 ± 2 kPa
vapor or sublimation pressure (295.15 K): 160 ± 2 kPa
vapor or sublimation pressure (297.15 K): 172 ± 2 kPa
vapor or sublimation pressure (298 K): 178 ± 2 kPa
vapor or sublimation pressure (299.15 K): 184 ± 2 kPa
vapor or sublimation pressure (301.15 K): 198 ± 2 kPa
vapor or sublimation pressure (303.15 K): 211 ± 2 kPa
vapor or sublimation pressure (303.18 K): 212 ± 2 kPa
vapor or sublimation pressure (305.15 K): 225 ± 2 kPa
vapor or sublimation pressure (307.15 K): 241 ± 2 kPa
vapor or sublimation pressure (308.18 K): 249 ± 2 kPa
vapor or sublimation pressure (309.15 K): 256 ± 2 kPa
vapor or sublimation pressure (311.15 K): 273 ± 2 kPa
vapor or sublimation pressure (313.15 K): 291 ± 2 kPa
vapor or sublimation pressure (313.17 K): 291 ± 2 kPa
vapor or sublimation pressure (315.15 K): 309 ± 2 kPa
vapor or sublimation pressure (317.15 K): 329 ± 2 kPa
vapor or sublimation pressure (318.14 K): 338 ± 2 kPa
vapor or sublimation pressure (319.15 K): 349 ± 2 kPa
vapor or sublimation pressure (321.14 K): 370 ± 2 kPa
vapor or sublimation pressure (323.14 K): 392 ± 2 kPa
vapor or sublimation pressure (323.15 K): 392 ± 2 kPa
vapor or sublimation pressure (325.15 K): 415 ± 2 kPa
vapor or sublimation pressure (327.15 K): 439 ± 2 kPa
vapor or sublimation pressure (328.12 K): 451 ± 2 kPa
vapor or sublimation pressure (329.15 K): 465 ± 2 kPa
vapor or sublimation pressure (331.15 K): 491 ± 2 kPa
vapor or sublimation pressure (333.11 K): 518 ± 2 kPa
vapor or sublimation pressure (333.15 K): 519 ± 2 kPa
vapor or sublimation pressure (335.15 K): 548 ± 2 kPa
vapor or sublimation pressure (337.15 K): 578 ± 2 kPa
vapor or sublimation pressure (338.12 K): 591 ± 2 kPa
vapor or sublimation pressure (339.15 K): 609 ± 3 kPa
vapor or sublimation pressure (341.15 K): 641 ± 3 kPa
vapor or sublimation pressure (343.07 K): 672 ± 3 kPa
vapor or sublimation pressure (343.15 K): 675 ± 3 kPa
vapor or sublimation pressure (345.15 K): 710 ± 3 kPa
vapor or sublimation pressure (347.16 K): 746 ± 3 kPa
vapor or sublimation pressure (348.16 K): 764 ± 3 kPa
vapor or sublimation pressure (349.15 K): 784 ± 3 kPa
vapor or sublimation pressure (351.15 K): 823 ± 3 kPa
vapor or sublimation pressure (353.12 K): 861 ± 3 kPa
vapor or sublimation pressure (353.16 K): 863 ± 3 kPa
vapor or sublimation pressure (358.13 K): 969 ± 3 kPa
vapor or sublimation pressure (363.14 K): 1086 ± 3 kPa
vapor or sublimation pressure (368.09 K): 1212 ± 3 kPa
vapor or sublimation pressure (372.61 K): 1336 ± 4 kPa
